Reference: patent publication US20050026979A1, “Methods for treating inflammation and inflammation-associated diseases with a statin and ether” (priority 2003, published 2005)

Tested on: monosodium iodoacetate ("MIA")-induced knee joint arthritis
Assay: Monosodium iodoacetate (MIA)-induced osteoarthritis joint pain model, acute dosing paradigm (hind paw weight distribution, incapacitance tester)
Assay type: in vivo, rat (male Wistar)
Conditions: for Change in Hind Paw Weight Distribution: Day 7 post-MIA, mean, n=6
Protocol: Monosodium Iodoacetate (“MIA”)-Induced Osteoarthritis:
Male Wistar rats (175-200 g) were housed in solid bottom isolator cages, […], with corncob bedding on a 12 hour:12 hour light:dark cycle. Animals were fed standard rat chow with water available ad libitum.
The rats were anesthetized with 5% volume/volume (“v/v”) isoflurane gas and maintained with 2% v/v isoflurane gas. The anesthetized rats were given a single intra-articular injection of 1 mg of MIA through the infrapatellar ligament of the right knee. MIA was dissolved in physiologic saline and administered in a volume of 50 μL. The contralateral control knee was injected with 50 μL of physiologic saline. Administration of isoflurane gas was discontinued, and the rats became fully conscious about 5 minutes later.
Shifts in hind paw weight distribution from the right to the left hind paws supporting the right (arthritic) and the left (contralateral control) hind leg knee joints were utilized as an index of joint pain and as a measure of compound efficacy. An incapacitance tester (Model 2KG, Linton Instrumentation, UK) was employed for determination of hind paw weight distribution. Each data point is the mean of three readings of 5 seconds duration.
The acute dosing paradigm used herein relates to osteoarthritis signs such as mobility and joint function and osteoarthritis symptoms such as joint pain. In this dosing paradigm, changes in hind paw weight distribution were determined early on Day 7 post-MIA injection, as described previously, to establish a baseline pain reading. […] Changes in hind paw weight distribution were determined 2, 4 and 6 hours post-compound administration.
MIA was injected into the right knee and saline into the left knee of all rats on Day 0. […] Two, four, and six hours later, the rats were re-assessed.
Statistically significant differences were determined by one-way ANOVA followed by Dunnett's multiple comparisons procedure. Data are expressed as mean±SEM. N=6 rats per group.

CC(C)(CCCCOCCCCC(C)(C)C(=O)[O-])C(=O)[O-].[Ca+2] [Compound A, 6-(5-carboxy-5-methyl-hexyloxy)-2,2-dimethyl-hexanoic acid calcium salt]
Change in Hind Paw Weight Distribution (2 hr post-dose, Compound A 10 mg/kg PO): 21 g | Change in Hind Paw Weight Distribution (4 hr post-dose, Compound A 10 mg/kg PO): 15 g | Change in Hind Paw Weight Distribution (6 hr post-dose, Compound A 10 mg/kg PO): 21 g | Effect on shift in weight bearing potential (joint pain) versus vehicle, in words (Compound A 10 mg/kg PO, 2, 4 and 6 hour post-dose time points): altered the shift in weight bearing potential (joint pain) in arthritic rats at the 2, 4 and 6 hour post-dose time points in a statistically significant manner | Change in Hind Paw Weight Distribution (Pre-Dose (Baseline), group later given Compound A 10 mg/kg PO): 32 g
